Read-outs that look alike come from different tables or passages of the source.
What was measured:
[1] = tested on: KG1 cells (FGFR1-FGFR1OP2 fusion); test: Cell growth assay (72 h); format: cell-based; settings: Homo sapiens, KG-1; KG1; read-out: Cell growth GI50
[2] = tested on: Ba/F3 cells expressing BCR-ABL^T315I; settings: for Wells with outgrowth: 480 wells surveyed
[3] = tested on: Phospho-FRS2a in SNU1 cells; test: Western immunoblotting; settings: Homo sapiens, SNU1, read-out: Phospho-FRS2a IC50 (nM)
[4] = tested on: Ba/F3 cells expressing native BCR-ABL
[5] = tested on: parental Ba/F3 cells; test: Cellular proliferation assay (MTS, 72 h); settings: Mus musculus, BaF3, 72 h
[6] = tested on: MFE-296 endometrial cancer cells (FGFR2 N549K); test: Cell growth assay (72 h); format: cell-based; settings: Homo sapiens
[7] = tested on: FGFR-2 mutant AN3CA endometrial tumor xenograft; test: AN3CA subcutaneous xenograft (Example 8); settings: mouse, in vivo
[8] = tested on: Phospho-Erk1/2 in RL95 cells; test: Western immunoblotting; settings: read-out: Phospho-Erk1/2 IC50 (nM)
[9] = tested on: FGFR4 signaling in MDA-453 breast cells (Y367C); test: Signaling (Western immunoblotting), Table 12; settings: MDA-453, read-out: Signaling IC50 (nM)
[10] = tested on: wild-type FLT3 primary blasts; test: Ex vivo viability of primary AML cells (MTS, 72 h)
[11] = tested on: Phospho-Erk1/2 in KatoIII cells; test: Western immunoblotting; settings: Homo sapiens, KATO III, read-out: Phospho-Erk1/2 IC50 (nM)
[12] = tested on: KatoIII gastric cancer cells (FGFR2 Amp/truncate); test: Cell growth assay (72 h); format: cell-based; settings: Homo sapiens, KATO III
[13] = tested on: AN3CA endometrial cancer cell line; test: Combination cell growth assay (Chou and Talalay); format: cell-based; settings: Homo sapiens, AN3-CA, read-out: 1×EC50 concentration
[14] = tested on: Phospho-Erk1/2 in MFE-296 cells; test: Western immunoblotting; settings: Homo sapiens, MFE-296, read-out: Phospho-Erk1/2 IC50 (nM)
[15] = tested on: Phospho-Erk1/2 in SNU16 cells; test: Western immunoblotting; settings: Homo sapiens, SNU-16, read-out: Phospho-Erk1/2 IC50 (nM)
[16] = tested on: FGFR3 signaling in MGH-U3 bladder cells (Y375C); test: Signaling (Western immunoblotting), Table 12; settings: read-out: Signaling IC50 (nM)
[17] = tested on: MV4-11 xenografts (FLT3-ITD); test: MV4-11 subcutaneous xenograft efficacy; format: in vivo, CB.17 SCID mice
[18] = tested on: Phospho-Erk1/2 in Hec1B cells; test: Western immunoblotting; settings: Homo sapiens, HEC-1B, read-out: Phospho-Erk1/2 IC50 (nM)
[19] = tested on: Ba/F3 cells expressing BCR-ABL^T315I; test: Ba/F3 subcutaneous tumor model
[20] = tested on: Phospho-FRS2a in Hec1B cells; test: Western immunoblotting; settings: Homo sapiens, HEC-1B, read-out: Phospho-FRS2a IC50 (nM)
[21] = Phase 1 clinical trial: safety
[22] = tested on: KY01 CML leukemia cells; test: Cellular proliferation assay
[23] = human, in vivo
[24] = tested on: SNU16 gastric cancer cells with amplified FGFR2; test: cells; settings: Homo sapiens, SNU-16, read-out: Cell growth GI50 (nM)
[25] = tested on: refractory AML with a FLT3-ITD mutation; test: Preliminary clinical trial result in AML; format: in vivo, human; settings: 45 mg daily p.o., one patient
[26] = tested on: Ba/F3 cells expressing native BCR-ABL; remark: listed apart in the source
[27] = tested on: wtFGFR2 RL95 cells; test: Cell growth assay (72 h); format: cell-based
[28] = tested on: Phospho-FRS2a in KatoIII cells; test: Western immunoblotting; settings: Homo sapiens, KATO III, read-out: Phospho-FRS2a IC50 (nM)
[29] = tested on: Phospho-Erk1/2 in AN3CA cells; test: Western immunoblotting; settings: Homo sapiens, AN3-CA, read-out: Phospho-Erk1/2 IC50 (nM)

**Q.** With `Cc1ccc(C(=O)Nc2ccc(CN3CCN(C)CC3)c(C(F)(F)F)c2)cc1C#Cc1cnc2cccnn12` [Compound 1, 3-(imidazo[1,2-b]pyridazin-3-ylethynyl)-4-methyl-N-(4-((4-methylpiperazin-1-yl)-methyl)-3-(trifluoromethyl)phenyl)benzamide] as the compound, how does the GI50 [1] read?
**A.** 10 nM

**Q.** And the “Occurrences (n), by specific compound mutation (with T315I)” value ([2]; 20 nM, 20 clones sequenced, T315I only)?
**A.** 20

**Q.** What about the “Frequency among clones (%)” value ([2]; 20 nM, T315I only) of the same compound?
**A.** 100.0%

**Q.** What about the Wells with outgrowth ([2]; 40 nM) of the same compound?
**A.** 192

**Q.** What about the “Frequency by residue (%)” value ([2]; 320 nM, E255) of the same compound?
**A.** 100.0%

**Q.** What about the “Occurrences (n), by residue” value ([2]; 320 nM, E255) of the same compound?
**A.** 1

**Q.** What about the Wells with outgrowth ([2]; 640 nM) of the same compound?
**A.** 0

**Q.** What about the IC50 [3] of the same compound?
**A.** > 1000 nM

**Q.** And the “differential in sensitivity between cells expressing native BCR-ABL and parental cells” value [4]?
**A.** greater than 3000 fold

**Q.** And the IC50 [5]?
**A.** 1710 nM

**Q.** And the GI50 [6]?
**A.** 72 nM

**Q.** What about the “inhibition of AN3CA tumor growth” value [7] of the same compound?
**A.** 49%

**Q.** What about the IC50 [8] of the same compound?
**A.** > 1000 nM

**Q.** What about the IC50 [9] of the same compound?
**A.** 30 nM

**Q.** What about the IC50 ([10]; Homo sapiens, 72 h, read-out: IC50, viability) of the same compound?
**A.** > 100 nM

**Q.** And the effect on viability ([10]; concentrations tested up to 100 nM, 72 hours)?
**A.** no reduction in viability

**Q.** What about the IC50 [11] of the same compound?
**A.** 8 nM

**Q.** What about the GI50 [12] of the same compound?
**A.** 7 nM

**Q.** What about the EC50 [13] of the same compound?
**A.** 30 nM

**Q.** And the IC50 [14]?
**A.** 5.5 nM

**Q.** What about the IC50 [15] of the same compound?
**A.** 8 nM

**Q.** And the IC50 [16]?
**A.** 40 nM

**Q.** And the TGI ([17]; 1 mg/kg oral once daily, 28 days, day 0 to day 24)?
**A.** 46%

**Q.** And the tumor response ([17]; 10 or 25 mg/kg, 31-day follow up)?
**A.** complete and durable tumor regression

**Q.** And the IC50 [18]?
**A.** > 1000 nM

**Q.** What about the “% T/C” value ([19]; 10 mg/kg daily oral) of the same compound?
**A.** 68%

**Q.** What about the “% T/C” value ([19]; 30 mg/kg daily oral) of the same compound?
**A.** 20%

**Q.** And the “% T/C” value ([19]; 50 mg/kg daily oral)?
**A.** 0.9%

**Q.** And the “reduction in mean tumor volume at final measurement compared to start of treatment” value ([19]; 50 mg/kg daily oral)?
**A.** 96%

**Q.** And the “levels of phosphorylated BCR-ABL and phosphorylated CrkL in tumors” value ([19]; single oral dose 30 mg/kg, 6 hr)?
**A.** markedly decreased levels of phosphorylated BCR-ABL and phosphorylated CrkL

**Q.** And the IC50 [20]?
**A.** > 1000 nM

**Q.** And the DLTs ([21]; 45 mg cohort)?
**A.** a reversible rash was seen with one patient

**Q.** What about the DLTs ([21]; 60 mg cohort) of the same compound?
**A.** four patients developed reversible pancreatic related DLT (pancreatitis)

**Q.** And the DLTs ([21]; 2 to 30 mg cohorts)?
**A.** No DLTs

**Q.** And the “drug-related adverse events of any grade: anemia” value ([21]; 57 patients, 2-60 mg)?
**A.** 12%

**Q.** And the “drug-related adverse events of any grade: lipase increase” value ([21]; 57 patients, 2-60 mg)?
**A.** 12%

**Q.** And the “drug-related adverse events of any grade: nausea” value ([21]; 57 patients, 2-60 mg)?
**A.** 12%

**Q.** What about the “drug-related adverse events of any grade: rash” value ([21]; 57 patients, 2-60 mg) of the same compound?
**A.** 12%

**Q.** What about the “drug-related adverse events of any grade: thrombocytopenia” value ([21]; 57 patients, 2-60 mg) of the same compound?
**A.** 25%

**Q.** What about the “maximum tolerated dose (MTD)” value ([21]; single daily oral dose) of the same compound?
**A.** 45 mg

**Q.** What about the IC50 [22] of the same compound?
**A.** 0.4 nM

**Q.** And the “accumulation after repeated dosing” value [23]?
**A.** 1.5-3 fold

**Q.** What about the GI50 [24] of the same compound?
**A.** 42 nM

**Q.** And the clinical response [25]?
**A.** complete response

**Q.** And the “frequency of mutated subclones” value [26]?
**A.** 33.1%

**Q.** What about the GI50 [27] of the same compound?
**A.** 428 nM

**Q.** What about the IC50 [28] of the same compound?
**A.** 34 nM

**Q.** And the IC50 [29]?
**A.** 5.8 nM
